# Experimental data published in patent US20250171463A1 (BIOGEN MA INC., priority 2022, published 2025).
# Molecular target: T1, EBP (Homo sapiens, UniProt Q15125)
# T1 construct: HEK293T cells were utilized as the source of EBP enzyme; endogenous in cells; host or cells: HEK293T
# Assay: EBP Functional Assay (EBP immunoaffinity LC-MS assay)
# Format: biochemical
# Settings: EBP enzyme from HEK293T cells; 30 min with inhibitor, then zymosterol-d5, 37° C., 4 h; percent conversion to dehydrolathosterol-d5 by LC-APCI MRM MS
# In short: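 IC50 comes from a 4-parameter logistic fit of zymosterol-d5-to-product percent conversion, measured by LC-APCI MRM MS after sterol extraction. Compounds were preincubated 30 min with EBP from HEK293T cells before deuterated substrate was added for 4 h at 37° C; Tasin-1 served as reference.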
# T1 sequence (Q15125 whole entry): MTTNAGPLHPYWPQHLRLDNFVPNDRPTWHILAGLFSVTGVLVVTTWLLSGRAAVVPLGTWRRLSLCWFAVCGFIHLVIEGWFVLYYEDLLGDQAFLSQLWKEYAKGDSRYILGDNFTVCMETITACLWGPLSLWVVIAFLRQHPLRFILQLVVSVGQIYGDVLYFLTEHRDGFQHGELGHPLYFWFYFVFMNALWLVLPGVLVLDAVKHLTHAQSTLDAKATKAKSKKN
structure (smiles),measurement,value
"O=S(=O)(c1ccc(C(F)(F)F)cc1C(F)(F)F)N1CC2(CN(CC3CCOCC3)C2)C1 [Example 211, 2-((2,4-bis(trifluoromethyl)phenyl)sulfonyl)-6-((tetrahydro-2H-pyran-4-yl)methyl)-2,6-diazaspiro[3.3]heptane]",IC50,100 to 250 nM
Cc1cc(C(F)(F)F)nc(C)c1S(=O)(=O)N1CC2(CN(CC3CCOC3)C2)C1 (racemic) [Example 103],IC50,100 to 250 nM
Cc1nc(C(C)(F)F)ccc1S(=O)(=O)N1CC2(CN(C3CCOC3)C2)C1 (centres unmarked) [Example 84],IC50,250 to 4000 nM
COC(=O)C(C)(C)CCN1CC2(C1)CN(S(=O)(=O)c1ccc(C(F)(F)F)nc1C)C2 [Example 177],IC50,250 to 4000 nM
"Cc1ccc(S(=O)(=O)N2CCC3(CCN(C4CCOCC4)C3)CC2)c(Cl)c1 [Example 36, 8-((2-Chloro-4-methylphenyl)sulfonyl)-2-(tetrahydro-2H-pyran-4-yl)-2,8-diazaspiro[4.5]decane]",IC50,< 100 nM
"CC1(CN2CCC3(CC2)CN(S(=O)(=O)c2cc(F)cc(F)c2)CCO3)COC1 [Example 29, 4-((3,5-Difluorophenyl)sulfonyl)-9-((3-methyloxetan-3-yl)methyl)-1-oxa-4,9-diazaspiro[5.5]undecane]",IC50,100 to 250 nM
"O=S(=O)(c1cc(F)cc(F)c1)N1CCOC2(CCN(C3CCOCC3)C2)C1 (centres unmarked) [Example 13, 9-((3,5-Difluorophenyl)sulfonyl)-2-(tetrahydro-2H-pyran-4-yl)-6-oxa-2,9-diazaspiro[4.5]decane]",IC50,< 100 nM
Cc1nc(C(F)(F)F)ccc1S(=O)(=O)N1CC2(CN(CCCOC3CCCC3)C2)C1 [Example 176],IC50,< 100 nM
Cc1nc(C(C)(F)F)ccc1S(=O)(=O)N1CC2(CN(C(C)C3CCOCC3)C2)C1 (centres unmarked) [Example 82],IC50,250 to 4000 nM
COC(C)CCCN1CC2(C1)CN(S(=O)(=O)c1ccc(C(F)(F)F)nc1C)C2 (centres unmarked) [Example 180],IC50,100 to 250 nM
"O=S(=O)(c1ccc(OC(F)F)cc1)N1CCOC2(CCN(CC3CCOCC3)CC2)C1 [Example 19, 4-((4-(Difluoromethoxy)phenyl)sulfonyl)-9-((tetrahydro-2H-pyran-4-yl)methyl)-1-oxa-4,9-diazaspiro[5.5]undecane]",IC50,250 to 4000 nM
Cc1cc(C)c(S(=O)(=O)N2CC3(CCN(C4CCOCC4)C3)C2)cn1 [Example 53],IC50,< 100 nM
"O=S(=O)(c1ccc(OC(F)F)cc1)N1CCO[C@@]2(CCN([C@H]3CCCOC3)C2)C1 (racemic) [Example 8, (±)—(R)-9-((4-(Difluoromethoxy)phenyl)sulfonyl)-2-((S)-tetrahydro-2H-pyran-3-yl)-6-oxa-2,9-diazaspiro[4.5]decane]",IC50,250 to 4000 nM
"Cc1ccc(S(=O)(=O)N2CCC3(CC2)CN(CC2(O)CCOCC2)C3)c(C)c1 [Example 34, 4-((7-((2,4-Dimethylphenyl)sulfonyl)-2,7-diazaspiro[3.5]nonan-2-yl)methyl)tetrahydro-2H-pyran-4-ol]",IC50,< 100 nM
Cc1cc(C(F)(F)F)nc(C)c1S(=O)(=O)N1CC2(CN(CC3CCOCC3)C2)C1 [Example 102],IC50,< 100 nM
Cc1nc(C(F)(F)F)ccc1S(=O)(=O)N1CC2(CCN(C3CCOCC3)C2)C1 [Example 56],IC50,< 100 nM
Cc1nc(C(C)(F)F)ccc1S(=O)(=O)N1CC2(CN(CC3CC4(COC4)C3)C2)C1 [Example 114],IC50,< 100 nM
"O=S(=O)(c1ccc(C(F)(F)F)nc1C1CC1)N1CC2(CN(C3CCOCC3)C2)C1 [Example 193, 2-((2-cyclopropyl-6-(trifluoromethyl)pyridin-3-yl)sulfonyl)-6-(tetrahydro-2H-pyran-4-yl)-2,6-diazaspiro[3.3]heptane]",IC50,< 100 nM
Cc1nc(C(F)(F)F)ccc1S(=O)(=O)N1CC2(CN(C3CCOC3)C2)C1 (centres unmarked) [Example 140],IC50,250 to 4000 nM
"Cc1nc(C(F)(F)F)ccc1S(=O)(=O)N1CC2(CN(C(C)C3CCOCC3)C2)C1 (racemic) [Example 153, rac-2-((2-methyl-6-(trifluoromethyl)pyridin-3-yl)sulfonyl)-6-(1-(tetrahydro-2H-pyran-4-yl)ethyl)-2,6-diazaspiro[3.3]heptane]",IC50,< 100 nM
"O=S(=O)(c1cnc(C2CC2)s1)N1CCOC2(CCN(C3CC4(COC4)C3)C2)C1 (centres unmarked) [Example 24, 9-((2-Cyclopropylthiazol-5-yl)sulfonyl)-2-(2-oxaspiro[3.3]heptan-6-yl)-6-oxa-2,9-diazaspiro[4.5]decane]",IC50,100 to 250 nM
"Cc1ccc(S(=O)(=O)N2CC3(CN(CC4CCOCC4)C3)C2)c(C(F)(F)F)n1 [Example 106, 2-((6-methyl-2-(trifluoromethyl)pyridin-3-yl)sulfonyl)-6-((tetrahydro-2H-pyran-4-yl)methyl)-2,6-diazaspiro[3.3]heptane]",IC50,100 to 250 nM
COc1ccc(S(=O)(=O)N2CC3(CN(C4CCOCC4)C3)C2)c(C)n1 [Example 47],IC50,100 to 250 nM
